Measured values published in paper PMC6918900, “Concentration-Dependent Activity of Hydromethylthionine on Cognitive Decline and Brain Atrophy in Mild to Moderate Alzheimer’s Disease” (Journal of Alzheimer's Disease, 2019).
“And” between values parts separate entries of the source, which are not always exact repeats. Equal entries are not always repeated. Where two headings read alike, the source gives them in different places.

Columns and labels:
[1] = Estimated steady state brain concentration of LMT; parameters: species or system human; details: corresponding to 0.3–0.8 ng/ml in plasma
[2] = elderly humans; cited from earlier work
[3] = tested on: tau transgenic mouse models; details: dose of 9 mg/kg/day; cited from earlier work
[4] = mice; cited from earlier work
electron transfer chain = tested on: electron transfer chain; parameters: method as in PMID 17928358, PMID 22419586; details: supplementary electron carrier in the electron transfer chain; cited from earlier work
autophagy = tested on: autophagy; parameters: method as in PMID 26572258, PMID 22361619; details: cited from earlier work
[5] = tested on: tangle filaments isolated from AD brain tissues; parameters: method as in PMID 25759392, PMID 8855335; details: at a similar molar ratio (tau:LMT 1 : 0.1); cited from earlier work
[6] = earlier Phase II study; cited from earlier work

## CN(C)c1ccc2c(c1)Sc1cc(N(C)C)ccc1N2 [LMT, leuco-methylthioninium]
[1]
  estimated steady state concentration in the brain: 6–16 ng/ml and 0.021–0.056 μM
[2]
  half-life: 37 h
[3]
  effect on tau aggregation pathology and behavioral deficits: reduces tau aggregation pathology and associated behavioral deficits
[4]
  half-life: 4 h

## CN(C)c1ccc2nc3ccc(=[N+](C)C)cc-3sc2c1 [MT moiety, methylthioninium]
Electron transfer chain
  concentrations enhancing mitochondrial activity: 10 to 100 nM
autophagy
  concentration range enhancing autophagy: 10 to 20 nM
[5]
  effect on proteolytic stability of tangle filaments: reverse the proteolytic stability of tangle filaments

## CN(C)c1ccc2nc3ccc(=[N+](C)C)cc-3sc2c1 [MTC, methylthioninium chloride]
[6]
  minimum effective dose: 138 mg/day
